Experimental data reported in PubChem BioAssay (NCI).
“And” between values parts separate entries of the source, which are not always exact repeats. Identical values can stand only once.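 Five concentrations, 48 hours, 96-well plates. Here, GI50 denotes the concentration required for 50% inhibition of growth. TGI: total growth inhibition.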

Legend:
Assay in all cases: DTP human tumour cell line panel, 48 h
SNB-19 CNS = test system: SNB-19 CNS
HCT-116 colon = test system: HCT-116 colon
HS 578T breast = test system: HS 578T breast
SF-295 CNS = test system: SF-295 CNS
UO-31 renal = test system: UO-31 renal
PC-3 prostate = test system: PC-3 prostate
HCC-2998 colon = test system: HCC-2998 colon
RXF 393 renal = test system: RXF 393 renal
SR leukemia = test system: SR leukemia
MDA-MB-231 breast = test system: MDA-MB-231 breast

Structure (SMILES)	GI50 (SNB-19 CNS)	TGI (SNB-19 CNS)	GI50 (HCT-116 colon)	TGI (HCT-116 colon)	GI50 (HS 578T breast)	TGI (HS 578T breast) [µM]	GI50 (SF-295 CNS)	TGI (SF-295 CNS)	GI50 (UO-31 renal)	TGI (UO-31 renal)	GI50 (PC-3 prostate)	TGI (PC-3 prostate)	GI50 (HCC-2998 colon) [µM]	TGI (HCC-2998 colon) [µM]	GI50 (RXF 393 renal)	TGI (RXF 393 renal)	GI50 (SR leukemia)	TGI (SR leukemia)	GI50 (MDA-MB-231 breast)	TGI (MDA-MB-231 breast)
N#CCC1CCN(c2nc(Nc3ccc(N4CCC(O)CC4)cc3)c3c(=O)[nH]ncc3n2)CC1	5.02 µM	> 100 µM	0.345 µM	> 100 µM	0.22 µM	1.23	1.44 µM	> 100 µM	0.259 µM	4.67 µM	> 100 µM	> 100 µM	1.71	> 100	0.303 µM	1.3 µM	0.288 µM	> 100 µM	1.17 µM	> 100 µM
Nc1c2ccccc2nc2ccccc12	1.82 µM and 3.61 µM	12.9 µM and 20.7 µM	0.702 µM and 2.17 µM	8.31 µM and 10.5 µM	2.45 µM and 8.09 µM		1.61 µM and 3.08 µM	9.52 µM and 17.5 µM	1.25 µM and 1.6 µM	2.75 µM and 7.34 µM	2.24 µM and 3.13 µM	9.38 µM and 15.9 µM	1.81	3.93	1.1 µM and 2.31 µM	2.77 µM and 6.57 µM	0.855 µM and 2.78 µM	6.84 µM and 16.6 µM	1.99 µM and 2.51 µM	6.09 µM and 8.37 µM
C/C=C/C(C/C=C(\C)CO[Si](C)(C)C(C)(C)C)O[Si](C)(C)C(C)(C)C (centres undefined)		> 100 µM		> 100 µM		> 100		> 100 µM		> 100 µM		> 100 µM		> 100		> 100 µM		> 100 µM		> 100 µM
CCN(CC)CCN1C(=O)c2cccc3cc(N)cc(c23)C1=O		> 100 µM		38.5 µM		> 100		32.5 µM		66.8 µM		> 100 µM		21.7		34.1 µM		39.8 µM		51.9 µM
COc1cccc(-c2cc(-c3ccc(Nc4nc(Nc5ccc(Cl)cc5)nc(Nc5ccc(Cl)cc5)n4)cc3)nc(N)c2C#N)c1	10.3 µM	> 39.3 µM	1.6 µM	3.53 µM	2.66 µM	11.2	2.78 µM	10.2 µM	1.52 µM	4.31 µM	2.01 µM	12 µM	2.11	5.54	1.44 µM	3.68 µM	0.966 µM	4.22 µM	1.74 µM	5.43 µM
CCN(CC)c1ccc(C=C2C(=O)NC(=S)NC2=O)cc1	3.55 µM	13.8 µM	3.34 µM	8.98 µM	5.53 µM	> 100	6.21 µM	21.2 µM	1.62 µM	3.61 µM	2.75 µM	7.96 µM	1.99	3.73	2.07 µM	3.72 µM	1.69 µM	10.3 µM	3.49 µM	10.6 µM
COC1=C(OC)C(=O)c2cc(C)c(=O)c(C)cc2C1=O		37.6 µM		28.9 µM		63.8		48.5 µM		27.9 µM		49.6 µM		55.1		29.4 µM		> 22.6 µM		20.7 µM
CCCN1CCCC(c2ccc(Nc3nc(Nc4cc(F)ccc4C(N)=O)c4cc[nH]c4n3)c(OC)c2)C1 (centres undefined)	3.19 µM	6.45 µM	0.21 µM	4.38 µM	3.41 µM	12.3	3.42 µM	7.16 µM	1.27 µM	5.88 µM	4.17 µM	9.6 µM	2.58	5.64	0.942 µM	4.48 µM	0.0112 µM	7.99 µM	3.28 µM	7.7 µM
N=C(N)c1ccc(-c2ccc(-c3cccs3)s2)cc1F	1.77 µM	3.65 µM	0.922 µM	2.37 µM	1.8 µM	4.49	0.39 µM	1.78 µM	1.55 µM	3.34 µM	1.48 µM	3.03 µM	1.29	2.93	1.25 µM	2.64 µM	0.341 µM	1.07 µM	1.16 µM	2.93 µM
Fc1cnccc1-c1nc2ccc3[nH]ncc3c2c2c1CCCC2	2.89 µM	> 100 µM	0.489 µM	5.03 µM	0.661 µM	6.7	2.53 µM	> 100 µM	1.91 µM	8.04 µM	2.13 µM	> 100 µM	3.2	> 100	0.612 µM	3.29 µM	0.519 µM	5.08 µM	2.3 µM	> 100 µM
